Results published in patent publication US11236087B2, “Highly active pyrazolo-piperidine substituted indole-2-carboxamides active against the hepatitis B virus (HBV)” (AiCuris GmbH & Co. KG, priority 2017, dated 2022).

Experiments:
HBV = test: Determination of HBV DNA from the supernatants of HepAD38 cells (anti-HBV activity); format: cell-based, hepatitis B virus; details: Hepatitis B virus, 144 h; HBV DNA in HepAD38 supernatant, day 6, qPCR; read-out: Cell Activity (EC50)
Summary of the method: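 HepAD38 cells, tetracycline withdrawn to induce HBV, treated with serial half-log compound dilutions; on day 6 HBV DNA purified from filtered supernatant and quantified by real-time PCR against HBV plasmid standards; EC50 from relative copy numbers by non-linear regression, three experiments in triplicate.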

HBV core protein = target: T1, HBV core protein (UniProt P03146); test: Biochemical capsid assembly assay (fluorescence quenching); design: species or system hepatitis B virus; details: read-out: Assembly Activity (IC50); BODIPY-FL labelled core protein, 300 μM NaCl, read 6 min after start
T1 construct: fused on or other part: BODIPY-FL maleimide label on the C-terminal Cys150
T1 sequence (P03146 whole entry, looked up, the tested form may be a part): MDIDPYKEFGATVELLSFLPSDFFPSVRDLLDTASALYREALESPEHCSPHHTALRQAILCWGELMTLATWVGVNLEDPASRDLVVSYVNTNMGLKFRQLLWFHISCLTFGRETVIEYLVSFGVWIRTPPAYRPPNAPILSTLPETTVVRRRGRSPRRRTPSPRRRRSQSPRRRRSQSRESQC
Summary of the method: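 Purified E. coli-expressed HBV core protein (aa 1-149 plus Cys150), BODIPY-FL maleimide-labelled, at 1.0-2.0 μM in 50 mM HEPES pH 7.5 with 0.5% DMSO was used. Compounds were tested at 8 concentrations (0.5-log dilutions from 100, 31.6 or 10 μM). Assembly was started with NaCl ([…]), and fluorescence quenching was read after 6 min (ex 477/em 525 nm). EC50 was determined by non-linear regression.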

[1] = Cell viability assay (AlamarBlue) in HepAD38 cells; details: human

| Structure (SMILES) | EC50 (HBV) [µM] | IC50 (HBV core protein) [µM] | CC50 at 6 days [1] [µM] |
| --- | --- | --- | --- |
| O=C(c1cc2c(F)c(F)ccc2[nH]1)N1CCc2[nH]nc(C34CC(C3)C4)c2C1 [Example 332, 2-(3-{bicyclo[1.1.1]pentan-1-yl}-1H,4H,5H,6H,7H-pyrazolo[4,3-c]pyridine-5-carbonyl)-4,5-difluoro-1H-indole] | < 1 | < 5 | > 10 |
| O=C(c1cc2c(F)cc(F)cc2[nH]1)N1CCc2n[nH]c(-c3cscn3)c2C1 [Example 20, 4,6-difluoro-2-[3-(1,3-thiazol-4-yl)-2H,4H,5H,6H,7H-pyrazolo[4,3-c]pyridine-5-carbonyl]-1H-indole] | < 1 | < 5 | > 10 |
| CNC1(COC(=O)c2n[nH]c3c2CN(C(=O)c2cc4ccccc4[nH]2)CC3)CC1 [Example 32, [1-(methylamino)cyclopropyl]methyl 5-(1H-indole-2-carbonyl)-1H,4H,5H,6H,7H-pyrazolo[4,3-c]pyridine-3-carboxylate] | < 1 | < 5 | > 100 |
| O=C(c1cc2ccccc2[nH]1)N1CCc2[nH]nc(CO)c2C1 [Example 118, [5-(1H-indole-2-carbonyl)-1H,4H,5H,6H,7H-pyrazolo[4,3-c]pyridin-3-yl]methanol] | 1 to 25 | 5 to 10 | > 100 |
| COCC1(N(C)C(=O)c2n[nH]c3c2CN(C(=O)c2cc4c(Cl)cc(F)cc4[nH]2)CC3)CC1 [Example 264, 5-(4-chloro-6-fluoro-1H-indole-2-carbonyl)-N-[1-(methoxymethyl)cyclopropyl]-N-methyl-1H,4H,5H,6H,7H-pyrazolo[4,3-c]pyridine-3-carboxamide] | < 1 | < 5 | > 10 |
| O=C(c1cc2c(F)cc(F)cc2[nH]1)N1C2CCC1c1cn[nH]c1C2 (stereo not drawn) [Example 117, 11-(4,6-difluoro-1H-indole-2-carbonyl)-4,5,11-triazatricyclo[6.2.1.0^2,6]undeca-2(6),3-diene] | < 100 | < 100 | > 100 |
| CCOC(=O)c1n[nH]c2c1CN(C(=O)c1cc3ccccc3[nH]1)CC2 [Example 140, ethyl 5-(1H-indole-2-carbonyl)-1H,4H,5H,6H,7H-pyrazolo[4,3-c]pyridine-3-carboxylate] | < 100 | < 5 | > 100 |
| CN(CCO)C(=O)c1n[nH]c2c1CN(C(=O)c1cc3ccc(Br)cc3[nH]1)CC2 [Example 29, 5-(6-bromo-1H-indole-2-carbonyl)-N-(2-hydroxyethyl)-N-methyl-1H,4H,5H,6H,7H-pyrazolo[4,3-c]pyridine-3-carboxamide] | < 1 | < 5 | > 10 |
| O=C(c1cc2cc(Cl)ccc2[nH]1)N1CCc2[nH]ncc2C1 [Example 122, 5-chloro-2-{1H,4H,5H,6H,7H-pyrazolo[4,3-c]pyridine-5-carbonyl}-1H-indole] | 1 to 25 | < 100 | > 100 |
| CN(C(=O)c1[nH]nc2c1CN(C(=O)c1cc3cc(F)c(Cl)cc3[nH]1)CC2)C1CC1 [Example 329, 5-(6-chloro-5-fluoro-1H-indole-2-carbonyl)-N-cyclopropyl-N-methyl-2H,4H,5H,6H,7H-pyrazolo[4,3-c]pyridine-3-carboxamide] | < 1 | < 5 | > 10 |
| CON(C)C(=O)c1n[nH]c2c1CN(C(=O)c1cc3c(F)cc(F)cc3[nH]1)CC2 [Example 127, 5-(4,6-difluoro-1H-indole-2-carbonyl)-N-methoxy-N-methyl-1H4H,5H,6H,7H-pyrazolo[4,3-c]pyridine-3-carboxamide] | < 1 | < 5 | > 100 |
| COCC1(N(C)C(=O)c2n[nH]c3c2CN(C(=O)c2cc4cc(F)c(Cl)cc4[nH]2)CC3)CC1 [Example 265, 5-(6-chloro-5-fluoro-1H-indole-2-carbonyl)-N-[1-(methoxymethyl)cyclopropyl]-N-methyl-1H,4H,5H,6H,7H-pyrazolo[4,3-c]pyridine-3-carboxamide] | < 1 | < 5 | > 10 |
| CCN(C)C(=O)c1n[nH]c2c1CN(C(=O)c1cc3ccccc3[nH]1)CC2 [Example 103, N-ethyl-5-(1H-indole-2-carbonyl)-N-methyl-1H,4H,5H,6H,7H-pyrazolo[4,3-c]pyridine-3-carboxamide] | < 1 | < 5 | > 100 |
| CN(C(=O)c1n[nH]c2c1CN(C(=O)c1cc3ccccc3[nH]1)CC2)C1CCCOC1 (stereo not drawn) [Example 193, 5-(1H-indole-2-carbonyl)-N-methyl-N-(oxan-3-yl)-1H,4H,5H,6H,7H-pyrazolo[4,3-c]pyridine-3-carboxamide] | 1 to 25 | < 100 | > 10 |
| CN1CCN(C(=O)c2n[nH]c3c2CN(C(=O)c2cc4ccccc4[nH]2)CC3)CC1 [Example 98, 2-[3-(4-methylpiperazine-1-carbonyl)-1H,4H,5H,6H,7H-pyrazolo[4,3-c]pyridine-5-carbonyl]-1H-indole] | 1 to 25 | < 100 | > 32 |
| Cc1cc(F)cc2[nH]c(C(=O)N3CCc4[nH]nc(C(=O)N(C)CCO)c4C3)cc12 [Example 61, 5-(6-fluoro-4-methyl-1H-indole-2-carbonyl)-N-(2-hydroxyethyl)-N-methyl-1H,4H,5H,6H,7H-pyrazolo[4,3-c]pyridine-3-carboxamide] | < 1 | < 5 | > 100 |
| CN(CC1CCOC1)C(=O)c1n[nH]c2c1CN(C(=O)c1cc3ccccc3[nH]1)CC2 (stereo not drawn) [Example 95, 5-(1H-indole-2-carbonyl)-N-methyl-N-[(oxolan-3-yl)methyl]-1H,4H,5H,6H,7H-pyrazolo[4,3-c]pyridine-3-carboxamide] | 1 to 25 | < 100 | > 100 |
| COCC1(N(C)C(=O)c2n[nH]c3c2CN(C(=O)c2cc4c(F)c(F)ccc4[nH]2)CC3)CC1 [Example 267, 5-(4,5-difluoro-1H-indole-2-carbonyl)-N-[1-(methoxymethyl)cyclopropyl]-N-methyl-1H,4H,5H,6H,7H-pyrazolo[4,3-c]pyridine-3-carboxamide] | < 1 | < 5 | > 10 |
| CC(C)[C@H](N)C(=O)OCCN(C)C(=O)c1n[nH]c2c1CN(C(=O)c1cc3ccccc3[nH]1)CC2 [Example 48, 2-{1-[5-(1H-indole-2-carbonyl)-1H,4H,5H,6H,7H-pyrazolo[4,3-c]pyridin-3-yl]-N-methylformamido}ethyl (2S)-2-amino-3-methylbutanoate] | < 1 | < 5 | > 32 |
| COCC1(N(C)C(=O)c2n[nH]c3c2CN(C(=O)c2cc4ccc(F)cc4[nH]2)CC3)CC1 [Example 166, 5-(6-fluoro-1H-indole-2-carbonyl)-N-[1-(methoxymethyl)cyclopropyl]-N-methyl-1H,4H,5H,6H,7H-pyrazolo[4,3-c]pyridine-3-carboxamide] | < 1 | < 5 | > 10 |
| O=C(c1cc2ccc(Br)cc2[nH]1)N1CCc2n[nH]c(-c3cscn3)c2C1 [Example 15, 6-bromo-2-[3-(1,3-thiazol-4-yl)-2H,4H,5H,6H,7H-pyrazolo[4,3-c]pyridine-5-carbonyl]-1H-indole] | < 1 | 5 to 10 | > 10 |
| O=C(c1cc2c(F)c(F)ccc2[nH]1)N1CCc2n[nH]c(-c3cscn3)c2C1 [Example 22, 4,5-difluoro-2-[3-(1,3-thiazol-4-yl)-2H,4H,5H,6H,7H-pyrazolo[4,3-c]pyridine-5-carbonyl]-1H-indole] | < 1 | < 5 | > 10 |
| CC(C)(C)OC(=O)N[C@@H]1CCN(C(=O)c2n[nH]c3c2CN(C(=O)c2cc4ccccc4[nH]2)CC3)C1 [Example 191, tert-butyl N-[(3R)-1-[5-(1H-indole-2-carbonyl)-1H,4H,5H,6H,7H-pyrazolo[4,3-c]pyridine-3-carbonyl]pyrrolidin-3-yl]carbamate] | 1 to 25 | < 5 | > 10 |
| CCOC(=O)CCC1(N(C)C(=O)c2n[nH]c3c2CN(C(=O)c2cc4ccccc4[nH]2)CC3)CC1 [Example 246, ethyl 3-{1-[N-methyl 5-(1H-indole-2-carbonyl)-1H,4H,5H,6H,7H-pyrazolo[4,3-c]pyridine-3-amido]cyclopropyl}propanoate] | < 100 | < 100 | > 10 |
| O=C(c1cc2ccccc2[nH]1)N1CCc2[nH]nc(C(=O)N3CCCC3)c2C1 [Example 99, 2-[3-(pyrrolidine-1-carbonyl)-1H,4H,5H,6H,7H-pyrazolo[4,3-c]pyridine-5-carbonyl]-1H-indole] | 1 to 25 | 5 to 10 | > 100 |
| CON(C)C(=O)c1n[nH]c2c1CN(C(=O)c1cc3c(C(F)(F)F)cccc3[nH]1)CC2 [Example 129, N-methoxy-N-methyl-5-[4-(trifluoromethyl)-1H-indole-2-carbonyl]-1H,4H,5H,6H,7H-pyrazolo[4,3-c]pyridine-3-carboxamide] | < 1 | < 5 | > 32 |
